US7390836B2, “Small molecules used to increase cell death” (priority 1999, dated 2008)
Like-named read-outs stand apart in the source and are kept apart here. Peptide text beside a SMILES is read from it. * marks the point of attachment. Cbz = O=C(OCc1ccccc1)*; CH2F = FC*

Assays:
Jurkat cells = test: Cytotoxicity by MTS assay and propidium iodide uptake; assay type: cell-based
Method: Since BH3Is induce apoptosis, their mode of action, for example, through disruption of BH3 domain interactions, was investigated next. If apoptosis induced by a BH3I is BH3-dependent, then cytotoxicity should correlate with the compound's ability to disrupt BH3 domain interactions in vitro. To examine this possibility, Jurkat cells were treated with the BH3 Is and the occurrence of cell death was assayed by the MTS assay and propidium iodide (PI) uptake (FIG. 7A). The cytotoxicity of BH3-Is followed the order of BH3I-2′>BH3I-2>BH3I-2″>BH3I-1>BH3I-1′>BH3I-1″>BH3I-1′″ which paralleled the order of their Ki values determined using in vitro Bcl-xL binding assays (FIGS. 7B and 7C). Similar data were obtained using a trypan blue exclusion assay.

[1] = test system: Bak BH3 peptide / Bcl-xL (Bcl-xL/GST, Bcl-xL-His6) interaction; test: Fluorescence polarization assay, labeled Bak BH3 peptide binding to Bcl-xL fusion protein; conditions: for order of affinities of BH3Is: overall rank order from FP, NMR, pulldown and SELDI results; for order of decreasing affinity, fluorescence polarization assays: rank order
Description: We have used a fluorescence polarization assay to screen a library of 16,000 chemical compounds (ChemBridge, San Diego, Calif.) to identify small molecules that inhibit the interaction between a peptide corresponding to the BH3 domain of a pro-apoptotic protein and a recombinant Bcl-xL/GST fusion protein. In this assay, an […] peptide corresponding to the BH3 domain of Bak was used. The Bak peptide was labeled with a fluorescent tag, such as OREGON GREEN. Upon binding of the tagged peptide to the Bcl-xL/GST fusion protein, the polarization of light emitted by the tagged peptide is altered. […] Conversely, in a sample in which a compound does inhibit the interaction between the Bak peptide and the Bcl-xL/GST fusion protein the polarization of light emitted by the peptide will not be altered.
A nineteen amino acid Bak peptide, corresponding to the BH3 domain of Bak, with the sequence […] (SEQ ID NO: 2) was labeled with the fluorophore OREGON GREEN according to the manufacturer's instructions (Molecular Probes, Eugene, Oreg.). In addition, a recombinant Bcl-xL/GST fusion protein was generated using conventional techniques known to those skilled in the fields of biochemistry and molecular biology. The interaction between the Bak peptide and the Bcl-xL/GST fusion protein was confirmed.
A screen of approximately 16,000 compounds from the ChemBridge chemical compound library was conducted to identify compounds that disrupt the interaction between the Bak peptide and the Bcl-xL/GST fusion protein. The ability of a compound to disrupt the interaction between the two polypeptides was assessed using a fluorescence polarization assay. The Bak peptide and Bcl-xL/GST fusion protein (15 nM each; dissolved in PBS) were first combined, and then the compound was added. Alternatively, the Bak peptide, Bcl-xL/GST fusion protein, and test compound (5 mg/ml; dissolved in 0.1-0.5 gl of DMSO) may be combined in any order. Normally the unbound Bak polypeptide results in polarization of approximately 40 mP units. Upon binding of the Bcl-xL/GST fusion protein, polarization increased to approximately 100-120 mP units.
In a preferred method, the fluorescence assay was carried out as follows. Bak BH3 peptide (Research Genetics) was labeled using NHS-OREGON GREEN (Molecular Probes) and purified by HPLC. For the initial screening assays, 33 nM of labeled BH3 peptide, 2 μM of GST-Bcl-xL protein, 0.1% bovine gamma globulin (BGG, Sigma) and 1 mM DTT mixed with PBS, pH 7.2 (Gibco) were added into 384 well black plates (Lab Systems) using MULTIDROP (Lab Systems). Small molecules (5 mg/ml in DMSO, ChemBridge) were transferred using plastic 384-pin arrays (Genetix). The plates were incubated for 1-2 hr at 25° C., and the fluorescence polarization assay values were determined using an Analyst plate reader (LJL Biosystems). Reactions containing 16.65 nM of labeled BH3 peptide and 4.2 μM of Bcl-xL-His6 fusion protein, which was previously utilized to characterize BH3/Bcl-xL binding (Sattler et al., Science 275:983-6, 1997) were used for the further fluorescence polarization analyses. Kd and Ki determination was performed as previously described using […] PRISM software package (GraphPad) (Dandliker et al., Methods Enzymol. 74:3-28,1981).
In a further screen, various concentrations of each of the above-identified compounds were evaluated for their potency. A serial dilution of each chemical compound was performed and the fluorescence polarization assay was repeated, as per the primary screen. As a result of the secondary screening, three compounds, chemical compound ID numbers 275805 (BH3I-1; FIG. 1), 282986 (BH3I-1′; FIG. 2), and 175362 (BH3I-2; FIG. 3), collectively termed “BH3Is,” were identified to disrupt the interaction between Bak and the BCL-xL/GST fusion protein. […] Additional homologues of the BH3I-1s (BH3I-1″ and BH3I-1′″) and BH3I-2 (BH3-2″ and BH3I-2″) were also analyzed in the study (FIG. 4). […]

Bcl-xL = molecular target: T1, Bcl-xL (Homo sapiens, UniProt Q07817, DEL45-84); test: NMR titration of Bcl-xL; assay type: binding; conditions: rank order
T1 construct: His6 (C); made in house
T1 sequence (Q07817 with tags, fused parts or gaps DEL45-84 limits assumed): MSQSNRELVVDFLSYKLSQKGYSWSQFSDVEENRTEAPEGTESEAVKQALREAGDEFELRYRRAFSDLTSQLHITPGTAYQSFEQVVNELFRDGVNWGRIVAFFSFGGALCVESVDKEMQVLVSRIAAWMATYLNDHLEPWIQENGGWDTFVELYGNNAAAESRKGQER
Method: To verify this conclusion, NMR titrations of Bcl-xL with BH3I-1s were performed and their Ki values were determined (FIG. 4). […] The BH3I-1s Ki values obtained by the NMR approach agree with the results of both pulldown and SELDI analyses. Therefore, the order of affinities of BH3Is is: BH312′>BH3I-2>BH3I-2″>BH3I-1>BH3I-1′>BH3I-1″>BH3I-1′″.
NMR titration was used to examine whether BH3Iinteracts with the binding pocket of Bcl-xL in a manner similar to Bak BH3 peptide (Hajduk et al., Science 278:497-499, 1997).
Next, changes in Bcl-xL structure upon addition of increasing amounts of BH3Is were determined. Each of the BH3Is induced significant changes in the Bcl-xL structure. The compounds targeted the hydrophobic cleft formed by the BH1, BH2, and BH3 domains on the surface of the Bcl-xL protein, and primarily bound to the area formed by BH1 and BH2 domains.

[2] = test system: HeLa cells that stably overexpress human BCL-XL; test: Cell death by ATP levels in Bcl-xL overexpressing cells after zVAD-fmk pretreatment; assay type: cell-based; conditions: zVAD-fmk 100 μM pretreatment, 48 or 72 hours
Method: In another study, HeLa cells that stably overexpress human BCL-XL, and are therefore more resistant to cell death, were pretreated with zVAD-fmk (100 μM) for 1 hour, as described above. Each of the chemical compounds BH3I-1, BH3I-1′, and BH3I-2 from the ChemBridge library was then added to the media of the cells of three separate samples. After 48 or 72 hours of exposure of the cells to zVAD-fmk and the chemical compound, the level of cell death was measured for each sample, by measuring cellular ATP levels.

HeLa cells = test: Cell death by ATP levels after zVAD-fmk pretreatment; assay type: cell-based; conditions: zVAD-fmk 100 μM pretreatment, 48 or 72 hours
Method: The conditions under which cell death occurs in the presence of BH3Is were further evaluated. HeLa cells were pretreated with zVAD-fmk (100 μM) for 1 hour. The purpose of such a treatment was to inhibit the intracellular pathways mediating cell death by apoptosis. Each of the chemical compounds BH3I-1, BH3I-1′, or BH3I-2 was then added to the media of the cells of three separate samples. After 48 or 72 hours of exposure of the cells to zVAD-fmk and the chemical compound, the level of cell death was measured for each sample, by measuring cellular ATP levels.

HeLa cells, Jurkat cells = test: Caspase dependence of BH3I-induced cell death (zVAD-fmk); assay type: cell-based; conditions: Hoechst dye
Method: FIG. 10A is a graph showing the comparison of BH3Is and Bax induced cell death. HeLa cells were transfected with YFP-Bax and pEYFP-C 1 for 48 hr in the absence (open bars) or presence (closed bars) of 100 μM zVAD-fmk. YFP transfected cells were also treated with BH3I-1 (100 μM) or BH3I-2 (50 μM) for 48 hours. Cell viability was determined by propidium iodide (PI) staining and microscopic examination of PI/YFP positive cells. Numbers represent the percentage of PI positive cells in the YFP positive population. The values of standard deviation are also shown.
FIG. 10B is a graph showing the attenuation of BH3Is' cytotoxicities by the pan-caspase inhibitor zVAD-fmk. Jurkat cells were treated with BH3I-1 or BH3I-2 in the presence (open bars) or absence (closed bars) of 100 μM zVAD-fmk (Alexis) for 48 hr. Cell death was determined using an MTS assay. Numbers represent the percentages of cell death, normalized relative to a DMSO treated control, which was set at 100% viability. Standard deviation values are also shown.
FIG. 10C is a set of images of cells showing that nuclear fragmentation, but not cytochrome c release, induced by BH3Is, requires caspases. […]
FIG. 10D-1-10D-6 are a series of graphs showing DNA fragmentation analysis of Jurkat cells treated with BH3Is and zVAD-fmk. […] Samples were analyzed by FACS, and the percentage of subG1 DNA is shown for each sample. […]

[3] = MTS assay and PI uptake, rank order

Structure (SMILES)	order of cytotoxicity (Jurkat cells)	order of affinities of BH3Is [1]	relative order of affinities, NMR titrations (Bcl-xL)	order of cytotoxicity (Jurkat cells; [3])	cellular ATP levels [2]	cellular ATP levels (HeLa cells)	order of decreasing affinity, fluorescence polarization assays [1]	protection from BH3I-induced nuclear fragmentation (HeLa cells, Jurkat cells)
CC(C)C(C(=O)O)N1C(=O)/C(=C/c2ccc(N(C)C)cc2)SC1=S (stereo not shown) [BH3I-1′″]	BH3I-2′>BH3I-2>BH3I-2″>BH3I-1>BH3I-1′>BH3I-1″>BH3I-1′″	BH312′>BH3I-2>BH3I-2″>BH3I-1>BH3I-1′>BH3I-1″>BH3I-1′″	BH3I-1>BH3I-1′>BH3I-1″>BH3I-1′″					
CC(C)C(C(=O)O)N1C(=O)/C(=C/c2ccc(Cl)cc2)SC1=S (stereo not shown) [BH3I-1′]		BH312′>BH3I-2>BH3I-2″>BH3I-1>BH3I-1′>BH3I-1″>BH3I-1′″	BH3I-1>BH3I-1′>BH3I-1″>BH3I-1′″	BH3I-2′>BH3I-2>BH3I-2″>BH3I-1>BH3I-1′>BH3I-1″>BH3I-1′″	cellular ATP levels decreased	cellular ATP levels decreased	BH3I-1>BH3I-1′>BH3I-2′>BH3I-2>BH3I-2″>BH3I-1″	
O=C(Nc1cc(S(=O)(=O)c2ccc(Cl)cc2)ccc1Cl)c1cc(I)cc(I)c1O [BH3I-2″]		BH312′>BH3I-2>BH3I-2″>BH3I-1>BH3I-1′>BH3I-1″>BH3I-1′″		BH3I-2′>BH3I-2>BH3I-2″>BH3I-1>BH3I-1′>BH3I-1″>BH3I-1′″			BH3I-1>BH3I-1′>BH3I-2′>BH3I-2>BH3I-2″>BH3I-1″	
COC(=O)C[C@H](NC(=O)[C@H](C)NC(=O)[C@@H](NC(=O)OCc1ccccc1)C(C)C)C(=O)CF [zVAD-fmk] (Cbz-Val-Ala-Asp(OMe)-CH2F)								completely protected cells from BH3I-induced nuclear fragmentation
O=C(Nc1cc(S(=O)(=O)c2ccc(Cl)cc2)ccc1Cl)c1cc(Cl)cc(I)c1O [BH3I-2′]		BH312′>BH3I-2>BH3I-2″>BH3I-1>BH3I-1′>BH3I-1″>BH3I-1′″		BH3I-2′>BH3I-2>BH3I-2″>BH3I-1>BH3I-1′>BH3I-1″>BH3I-1′″			BH3I-1>BH3I-1′>BH3I-2′>BH3I-2>BH3I-2″>BH3I-1″	
